In publication PMC9385671 (Nature Communications, 2022):
Several values for one entry are separate records, joined by “and”; a condition that tells them apart may be missing. Equal entries are not always repeated. Where two headings read alike, the source gives them in different places.

Experiments:
[1] = Side-chain acidity: pKa by 1H NMR titration of free amino acids; assay type: physicochemical; settings: for pKa: aqueous KH2PO4 solution titrated with sodium hydroxide; for pKa of the phenolic side-chain: experimental error ±0.15
Description: 10–20 mg of an amino acid, 50 mg of KH2PO4 was dissolved in 15 ml of water and titrated by sodium hydroxide solution to distinct pH values. 500 μl were taken to NMR tubes, 50 μl deuterium oxidewas added and ^1H NMR spectra were measured using W5 pulse tray water suppression at 500 MHz frequency. The chemical shifts were plotted against pH and analyzed using Henderson-Hasselbalch equation to deliver the pKa values. Experimental error ±0.15.

MjTyrRS variants [2] = target: T1, MjTyrRS variants (Methanocaldococcus jannaschii, UniProt Q57834, D158A/F108N/H70G/L162C/L65E/Y32V); assay: Intact cell fluorescence assay of HYs incorporation into SUMO-sfGFP; assay type: cell-based; settings: Synthetase C64RS
T1 construct: expressed in transfected cells
T1 sequence (Q57834 whole entry Y32V/L65E/H70G/F108N/D158A/L162C): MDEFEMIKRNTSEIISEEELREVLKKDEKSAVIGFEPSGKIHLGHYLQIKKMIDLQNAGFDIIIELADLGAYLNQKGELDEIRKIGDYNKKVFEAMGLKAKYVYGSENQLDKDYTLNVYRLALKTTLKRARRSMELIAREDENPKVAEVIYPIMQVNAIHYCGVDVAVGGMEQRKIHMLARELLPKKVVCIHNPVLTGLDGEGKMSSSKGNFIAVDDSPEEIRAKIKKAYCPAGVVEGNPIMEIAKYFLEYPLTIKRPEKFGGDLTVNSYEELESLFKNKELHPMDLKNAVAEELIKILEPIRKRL
Description: (§1) The intact cell fluorescence assay was performed to approximately compare the Br2Y and Cl2Y incorporation efficiency of screened MjTyrRSs as well as to estimate their promiscuity against other Tyr analogues. Since the gene expression of SUMO-sfGFP was driven by T5 promoter on the one round positive selection plasmid, SUMO-sfGFP can be directly expressed in DH10b strain. […] Next day, an overnight culture was inoculated in a well at a ratio of 1:100 containing 300 μL TB medium supplemented with 50 μg/mL Kan,100 μg/mL Amp, 0.5 mM IPTG as well as 1 mM HYs while the corresponding control lacked the HYs. Cells were grown in 96 well plates (Ibidi) with orbital shaking (2 mm amplitude) for 24 h at 37 °C covered with a gas-permeable foil (Sigma Aldrich, Taufkirchen, Germany). […] After 24 h incubation, the optimal density and fluorescence was measured via top reading after the gas-permeable foil was removed. Each measurement was done in triplicate.

MjTyrRS variants [3] = target: T2, MjTyrRS variants (Methanocaldococcus jannaschii, UniProt Q57834, D158A/F108Q/H70G/L162N/L65E/Q109C/Y32G); assay: as above; assay type: cell-based; settings: for Fluorescence Instensity: Synthetase B48RS; for Incorporation efficiency (sfGFP fluorescence) versus control without HYs additions: mutant B48RS, 1 mM HY, E. coli DH10b
T2 construct: expressed in transfected cells
T2 sequence (Q57834 whole entry Y32G/L65E/H70G/F108Q/Q109C/D158A/L162N): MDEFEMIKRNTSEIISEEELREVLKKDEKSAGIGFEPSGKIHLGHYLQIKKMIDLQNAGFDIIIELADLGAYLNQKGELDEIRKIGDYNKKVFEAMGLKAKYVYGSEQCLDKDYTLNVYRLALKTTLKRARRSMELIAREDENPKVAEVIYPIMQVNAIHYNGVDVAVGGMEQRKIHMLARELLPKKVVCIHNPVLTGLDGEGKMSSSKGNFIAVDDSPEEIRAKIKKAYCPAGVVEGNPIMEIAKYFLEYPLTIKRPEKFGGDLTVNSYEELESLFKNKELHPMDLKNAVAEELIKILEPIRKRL
Description: as §1

MjTyrRS variants [4] = assay: as above; assay type: cell-based, Methanocaldococcus jannaschii
Description: as §1

FtsZ-YFP-mts = FtsZ-YFP-mts (Escherichia coli, UniProt P0A9A6); set-up: made in house; host or cells: E. coli BL21(DE3) for the wild type; settings: intensity line profile
FtsZ-YFP-mts, sequence (P0A9A6 1-366): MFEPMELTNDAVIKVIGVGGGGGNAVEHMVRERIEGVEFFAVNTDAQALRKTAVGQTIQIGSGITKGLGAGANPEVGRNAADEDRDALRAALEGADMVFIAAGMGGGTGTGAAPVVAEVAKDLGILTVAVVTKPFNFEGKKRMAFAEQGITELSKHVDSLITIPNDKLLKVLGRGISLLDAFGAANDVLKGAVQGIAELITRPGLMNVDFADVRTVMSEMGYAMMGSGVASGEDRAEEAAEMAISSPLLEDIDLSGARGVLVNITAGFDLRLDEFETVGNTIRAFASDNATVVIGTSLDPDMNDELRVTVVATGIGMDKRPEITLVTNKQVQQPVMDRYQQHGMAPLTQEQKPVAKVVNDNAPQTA
Description: 1,2-dioleoyl-sn-glycero-3-phosphocholine (DOPC):1,2-dioleoyl-sn-glycero-3-phospho-(1’-rac-glycerol) (DOPG), 70:30 mol % mixture, was dissolved in chloroform in a quartz container, then dehumidified under a gas nitrogen stream. Chloroform traces were further removed through desiccation (1 h). Afterwards, the lipid film was hydrated to a final concentration of 4 mg/ml in supported lipid bilayers (SLB) buffer (50 mM Tris-HCl at pH 7.5, 150 mM KCl), and incubated at 37 °C for 30 min. The lipid film was then completely resuspended by vortexing rigorously to obtain multilamellar vesicles of different sizes. This mixture was then placed in a bath sonicator where shear forces help to reduce the size of the vesicles, giving rise to small unilamellar vesicles (SUVs). The SUV dispersion were stored at −20 °C as 20 µl aliquots.
Glass coverslips (1.5#, 24 x 24 mm) were cleaned by piranha solution overnight, followed by extensive washing with milliQ H2O. Then glass coverslips were blown dry with compressed air. The reaction chamber was prepared by attaching a plastic ring on a cleaned glass coverslip using ultraviolet glue (Thorlabs No. 68). For supported lipid bilayer formation, the SUV dispersion was diluted in SLB buffer to 0.5 mg/ml, of which 75 µl was added to the reaction chamber. Adding CaCl2 to a final concentration of 3 mM induced fusion of the vesicles and the formation of a lipid bilayer on coversilde. After 20 min of incubation at 37 °C, the sample was rinsed with 2 ml pre-warmed SLB buffer.
Polymerization was induced by adding 4 mM GTP.
The UltimateFocus feature of DeltaVision Elite maintains the focus plane constant in time. […] Fluorescence imaging was performed using a standard FITC filter set. Images were acquired with a PCO sCMOS 5.5 camera (PCO, Germany) controlled by the softWoRx Software (GE Healthcare Life Sciences, Germany). For time-lapse experiments, images were acquired every 3 s with a 0.05 s exposure time and light illumination shuttered between acquisitions.

[5] = experimental error ±0.15, read-out: Ammonium pKa
[6] = experimental error ±0.15, read-out: pKa of the phenolic side-chain

In the case of `N[C@@H](Cc1ccc(O)c(Br)c1)C(=O)O` [BrY, 3-bromo-L-tyrosine], the pKa [1, 5] is reported as 9.52, the pKa [1, 6] is reported as 8.3 and the “pKa of the phenolic side-chain” value [1] is reported as 8.29. For the same molecule, the “Fluorescence Instensity” value (MjTyrRS variants [2]) was 0.3329 a.u. and 0.3931 a.u. and 0.2701 a.u, the “Fluorescence Instensity” value (MjTyrRS variants [3]) was 0.5063 a.u. and 0.6051 a.u. and 0.4087 a.u and the “Incorporation efficiency (sfGFP fluorescence) versus control without HYs additions” value (MjTyrRS variants [3]) was “more than 100 fold”. For the same molecule, the “Fluorescence Instensity” value (MjTyrRS variants [4]; Synthetase B4RS) was 0.06278 a.u. and 0.07689 a.u. and 0.04597 a.u, the “Fluorescence Instensity” value (MjTyrRS variants [4]; Synthetase B12RS) was 0.408 a.u. and 0.4614 a.u. and 0.3514 a.u and the “Fluorescence Instensity” value (MjTyrRS variants [4]; Synthetase B37RS) was 0.2591 a.u. and 0.2929 a.u. and 0.2246 a.u. The “Fluorescence Instensity” value (MjTyrRS variants [4]; Synthetase C5RS) was 0.7502 a.u. and 0.845 a.u. and 0.6301 a.u, the “Fluorescence Instensity” value (MjTyrRS variants [4]; Synthetase C45RS) was 0.7918 a.u. and 0.9328 a.u. and 0.6597 a.u and the “Fluorescence Instensity” value (MjTyrRS variants [4]; Synthetase C61RS) was 0.2377 a.u. and 0.2625 a.u. and 0.2104 a.u.
In the case of `N[C@@H](Cc1cc(Cl)c(O)c(Cl)c1)C(=O)O` [Cl2Y, 3,5-dichloro-L-tyrosine], the pKa [1, 5] is reported as 9.4, the pKa [1, 6] is reported as 6.5 and the “pKa of the phenolic side-chain” value [1] is reported as 6.52. For the same molecule, the “Fluorescence Instensity” value (MjTyrRS variants [2]) was 0.3285 a.u. and 0.3594 a.u. and 0.2924 a.u, the “Fluorescence Instensity” value (MjTyrRS variants [3]) was 0.5689 a.u. and 0.6362 a.u. and 0.4688 a.u and the “Incorporation efficiency (sfGFP fluorescence) versus control without HYs additions” value (MjTyrRS variants [3]) was “more than 100 fold”. The “Fluorescence Instensity” value (MjTyrRS variants [4]; Synthetase B4RS) was 0.07529 a.u. and 0.09709 a.u. and 0.05112 a.u, the “Fluorescence Instensity” value (MjTyrRS variants [4]; Synthetase B12RS) was 0.3851 a.u. and 0.4746 a.u. and 0.2926 a.u and the “Fluorescence Instensity” value (MjTyrRS variants [4]; Synthetase B37RS) was 0.3145 a.u. and 0.3721 a.u. and 0.2575 a.u. For the same molecule, the “Fluorescence Instensity” value (MjTyrRS variants [4]; Synthetase B39RS) was 0.2554 a.u. and 0.3069 a.u. and 0.2029 a.u, the “Fluorescence Instensity” value (MjTyrRS variants [4]; Synthetase C5RS) was 0.7019 a.u. and 0.7995 a.u. and 0.5915 a.u and the “Fluorescence Instensity” value (MjTyrRS variants [4]; Synthetase C45RS) was 0.8209 a.u. and 0.9248 a.u. and 0.7159 a.u. The “Fluorescence Instensity” value (MjTyrRS variants [4]; Synthetase C61RS) was 0.5873 a.u. and 0.6501 a.u. and 0.5303 a.u.
With `N[C@@H](Cc1ccc(O)cc1)C(=O)O` [Y, tyrosine] the “Fluorescence Instensity” value (MjTyrRS variants [2]) was 0.01243 a.u. and 0.01248 a.u. and 0.01236 a.u, the “Fluorescence Instensity” value (MjTyrRS variants [3]) was 0.00506 a.u. and 0.00513 a.u. and 0.00494 a.u and the “Fluorescence Instensity” value (MjTyrRS variants [4]; Synthetase B4RS) was 0.06037 a.u. and 0.07682 a.u. and 0.04915 a.u. The “Fluorescence Instensity” value (MjTyrRS variants [4]; Synthetase B37RS) was 0.1466 a.u. and 0.1756 a.u. and 0.1118 a.u, the “Fluorescence Instensity” value (MjTyrRS variants [4]; Synthetase B39RS) was 0.1833 a.u. and 0.2205 a.u. and 0.1319 a.u and the “Fluorescence Instensity” value (MjTyrRS variants [4]; Synthetase C5RS) was 0.01571 a.u. and 0.01574 a.u. and 0.0156 a.u. The Gray value (FtsZ-YFP-mts; Distance(um) 5.15845) was 0.2436, the Gray value (FtsZ-YFP-mts; Distance(um) 5.17427) was 0.2678 and the Gray value (FtsZ-YFP-mts; Distance(um) 5.1901) was 0.2809. It also gave a Gray value (FtsZ-YFP-mts; Distance(um) 5.20592) of 0.2851, a Gray value (FtsZ-YFP-mts; Distance(um) 5.22175) of 0.3113 and a Gray value (FtsZ-YFP-mts; Distance(um) 5.23757) of 0.3327. It also gave a Gray value (FtsZ-YFP-mts; Distance(um) 5.25339) of 0.3531, a Gray value (FtsZ-YFP-mts; Distance(um) 5.26922) of 0.3835 and a Gray value (FtsZ-YFP-mts; Distance(um) 5.28504) of 0.428. For the same molecule, the Gray value (FtsZ-YFP-mts; Distance(um) 5.30086) was 0.443, the Gray value (FtsZ-YFP-mts; Distance(um) 5.31669) was 0.4411 and the Gray value (FtsZ-YFP-mts; Distance(um) 5.33251) was 0.4633. The Gray value (FtsZ-YFP-mts; Distance(um) 5.34833) was 0.4809, the Gray value (FtsZ-YFP-mts; Distance(um) 5.36416) was 0.4782 and the Gray value (FtsZ-YFP-mts; Distance(um) 5.37998) was 0.498. It also gave a Gray value (FtsZ-YFP-mts; Distance(um) 5.3958) of 0.5435, a Gray value (FtsZ-YFP-mts; Distance(um) 5.41163) of 0.5554 and a Gray value (FtsZ-YFP-mts; Distance(um) 5.42745) of 0.5565. The Gray value (FtsZ-YFP-mts; Distance(um) 5.44327) was 0.5888, the Gray value (FtsZ-YFP-mts; Distance(um) 5.4591) was 0.6168 and the Gray value (FtsZ-YFP-mts; Distance(um) 5.47492) was 0.6475. The Gray value (FtsZ-YFP-mts; Distance(um) 5.49074) was 0.6743, the Gray value (FtsZ-YFP-mts; Distance(um) 5.50657) was 0.698 and the Gray value (FtsZ-YFP-mts; Distance(um) 5.52239) was 0.7626. It also gave a Gray value (FtsZ-YFP-mts; Distance(um) 5.53821) of 0.7361, a Gray value (FtsZ-YFP-mts; Distance(um) 5.55404) of 0.7938 and a Gray value (FtsZ-YFP-mts; Distance(um) 5.56986) of 0.8828. It also gave a Gray value (FtsZ-YFP-mts; Distance(um) 5.58569) of 0.899, a Gray value (FtsZ-YFP-mts; Distance(um) 5.60151) of 0.8493 and a Gray value (FtsZ-YFP-mts; Distance(um) 5.61733) of 0.8767. For the same molecule, the Gray value (FtsZ-YFP-mts; Distance(um) 5.63316) was 0.9446, the Gray value (FtsZ-YFP-mts; Distance(um) 5.64898) was 1 and the Gray value (FtsZ-YFP-mts; Distance(um) 5.6648) was 0.9652. It also gave a Gray value (FtsZ-YFP-mts; Distance(um) 5.68063) of 0.9584, a Gray value (FtsZ-YFP-mts; Distance(um) 5.69645) of 0.9755 and a Gray value (FtsZ-YFP-mts; Distance(um) 5.71227) of 0.9816. For the same molecule, the Gray value (FtsZ-YFP-mts; Distance(um) 5.7281) was 0.9099, the Gray value (FtsZ-YFP-mts; Distance(um) 5.74392) was 0.8492 and the Gray value (FtsZ-YFP-mts; Distance(um) 5.75974) was 0.8638. It also gave a Gray value (FtsZ-YFP-mts; Distance(um) 5.77557) of 0.7917, a Gray value (FtsZ-YFP-mts; Distance(um) 5.79139) of 0.7498 and a Gray value (FtsZ-YFP-mts; Distance(um) 5.80721) of 0.6513.
